One experiment concerns VIP receptors. The experiment can be described thus: Displacement assay using 125I labeled VIP (10-28) fragment on human tumor cell lines. The conditions noted are these: inhibition of 125I labeled VIP (10-28) fragment binding. As for the experimental part:
Peptides of the invention were assayed for biological activity in homogeneous competition binding assays using ^125I labeled VIP peptide (SEQ ID NO:1) and in heterogeneous displacement assays using either ^125I labeled VIP (10-28) fragment (Tyr-Thr-Arg-Leu-Arg-Lys-Gln-Met-Ala-Val-Lys-Lys-Tyr-Leu-Asn-Ser-Ile-Leu-Asn-NH2) (SEQ ID NO: 12) or ^125I labeled VIP (SEQ ID NO:1). The assays were performed on a variety of human tumor cell lines.
In the practice of these methods, the peptide was radioiodinated using the iodogen method. Briefly, 5 μg of the peptide in 10 μl of 50 mM PBS (pH 7.5), an appropriate amount of the radioisotope and 50 μg-100 μg iodogen were incubated at room temperature for 15-30 min with occasional mixing. Radioiodinated peptide was purified from unincorporated radioactive iodine by purification on a Sep Pak C18 cartridge, essentially following the same procedure as described for technetium labeling.
Displacement assays were performed at 4-8° C. Briefly, 50,000 cells were plated per well of a 24 well plate and allowed to adhere overnight. Before the assay, the cells were washed twice with ice cold Binding buffer (25 mM HEPES, 10 mM MgCl2 and 1% BSA in RPMI 1640 medium). The cells were incubated for 2-3hrs with an appropriate concentration (0.1-10 nM) of ^125I labeled VIP (10-28) fragment (SEQ ID NO:12) in the presence and absence of the cold ligand (SEQ ID NO: 2) (1 nM-10 μM). The non specific binding was ascertained using 10 μM of VIP. After incubation, the cells were washed thrice with the binding buffer to remove the unbound peptide. The cells were lysed and counts were measured in a Gamma counter. From a comparison of the extent of binding in the presence or absence of the unlabeled peptide, a concentration was determined corresponding to inhibition of ^125I labeled VIP (10-28) fragment binding by 50% (termed the IC50) (TABLE III).
The following tumor cell lines were assayed using the above described displacement assay: HT29 (human colorectal adenocarcinoma); PTC (human primary tumor cells adenocarcinoma); KB (human squamous cell carcinoma); 4451 (human squamous cell carcinoma); L132 (human lung carcinoma); A549 (human lung carcinoma); HBL100 (human breast carcinoma) and PA1 (human ovarian carcinoma).
Cells were grown in RPMI 1640 supplemented with 10% fetal calf serum, glutamine and antibiotics using standard cell culture techniques (see Animal Cell Culture: A Practical Approach, Freshney, ed, IRL press: Oxford, UK, 1992).

The target in experiment [1] is high affinity (nM range), low surface expression receptor on human tumor cells (VIP receptor) (human). The experiment can be described thus: maximal binding, 125I-SEQ ID NO:2 on HBL 100 cells.
Experiment [2] addresses low affinity (µM range), high surface expression receptor on human tumor cells (VIP receptor) (human). As to the kind of experiment: maximal binding, 125I-SEQ ID NO:2 on HBL 100 cells.
The target in experiment [3] is high affinity (nM range), low surface expression receptor on human tumor cells (VIP receptor) (human). The experiment can be described thus: maximal binding, 125I-SEQ ID NO:2 on 4451 cells.
The target of experiment [4] is low affinity (µM range), high surface expression receptor on human tumor cells (VIP receptor) (human). As to the kind of experiment: maximal binding, 125I-SEQ ID NO:2 on 4451 cells.
For experiment [5] the target is unchanged. As to the kind of experiment: homologous radioligand competition, 125I-SEQ ID NO:2 on HT29 cells. (In general: Displacement assays read how much labelled ligand stays bound in the presence of the test substance.)

Square brackets hold non-standard residues; d marks the D form. Ends that are not written are not given here. dPhe(4-Cl) = N[C@H](Cc1ccc(Cl)cc1)C(=O)O; Aib = CC(C)(N)C(=O)O

Consider “His-Ser-Asp-Aib-Val-4-Cl-D-Phe-Thr-Asp-Asn-Tyr-Thr-Arg-Leu-Arg-Lys-Gln-Leu-Ala-Val-Lys-Lys-Tyr-Leu-Asn-Ser-Ile-Leu-Asn-NH2 (HSD[Aib]V[dPhe(4-Cl)]TDNYTRLRKQLAVKKYLNSILN-NH2; N-terminus assumed; SMILES CC[C@H](C)[C@H](NC(=O)[C@H](CO)NC(=O)[C@H](CC(N)=O)NC(=O)[C@H](CC(C)C)NC(=O)[C@H](Cc1ccc(O)cc1)NC(=O)[C@H](CCCCN)NC(=O)[C@H](CCCCN)NC(=O)[C@@H](NC(=O)[C@H](C)NC(=O)[C@H](CC(C)C)NC(=O)[C@H](CCC(N)=O)NC(=O)[C@H](CCCCN)NC(=O)[C@H](CCCNC(=N)N)NC(=O)[C@H](CC(C)C)NC(=O)[C@H](CCCNC(=N)N)NC(=O)[C@@H](NC(=O)[C@H](Cc1ccc(O)cc1)NC(=O)[C@H](CC(N)=O)NC(=O)[C@H](CC(=O)O)NC(=O)[C@@H](NC(=O)[C@@H](Cc1ccc(Cl)cc1)NC(=O)[C@@H](NC(=O)C(C)(C)NC(=O)[C@H](CC(=O)O)NC(=O)[C@H](CO)NC(=O)[C@@H](N)Cc1c[nH]cn1)C(C)C)[C@@H](C)O)[C@@H](C)O)C(C)C)C(=O)N[C@@H](CC(C)C)C(=O)N[C@@H](CC(N)=O)C(N)=O) [SEQ ID NO:2, VIP receptor antagonist, preferred peptide (Xxx = Aib)]”, for which the IC50 (commonly the concentration that gives 50% inhibition) is 0.383 nM in the experiment with VIP receptors (4451 cells); 0.275 nM with VIP receptors (A549 cells); 0.236 nM with VIP receptors (HBL 100 cells); 0.22 nM in the experiment on VIP receptors (HT29 cells); 0.35 nM with VIP receptors (KB cells); 0.228 nM in the experiment on VIP receptors (L132 cells). Besides, the half-maximal inhibitory concentration (IC50) is 0.31 nM in the experiment on VIP receptors (PA1 cells) and 0.132 nM in the experiment with VIP receptors (PTC cells).
Turning to HSD[Aib]V[dPhe(4-Cl)]TDNYTRLRKQLAVKKYLNSILN-NH2 (also: 125I-labelled form (iodogen) used as tracer), the Bmax1 in experiment [1] came out at 697 pM; in experiment [3], 579 pM. Also, the Bmax2 in experiment [2] worked out at 69.1 nM; in experiment [4], 51 nM. Also, the Kd (commonly the constant that tells how readily two partners part at equilibrium) in experiment [5] amounted to 1370 nM.

For the origin of these results see US6608174B1, “Radiolabeled vasoactive intestinal peptide analogs for diagnosis and radiotherapy” (Dabur Research Foundation, priority 2000, dated 2003).
